Laboratory results taken from patent publication US9603888B2, “Pea protein peptides with anti Helicobacter pylori activity” (priority 2010, dated 2017).
Where “and” joins values, the source holds several entries; their conditions need not be identical. Equal values may be shown once. Where no end group is shown, it is not given here.

What was measured:
[1] = test system: FITC-labelled H. pylori on AGS cells; experiment: Flow cytometric anti-adhesion assay of FITC-labelled H. pylori on AGS cells; details: for reduction of adhesion: fragments of S3
Procedure: H. pylori was incubated for 48 h under microaerophilic conditions at 37° C. on Tryptic Soy Agar (Becton Dickinson, Germany), supplemented with 5% defibrinated sheep blood (Oxoid, UK).
Human gastric epithelial cells (AGS cells) were grown in RPMI 1640 with L-glutamine (PAA, Germany), supplemented with 10% FCS, on tissue culture flasks (75 cm^2, Sarstedt, USA) and 6-well-plates (Sarstedt, USA) in 5% CO2.
Agar grown H. pylori were harvested and resuspended in sterile carbonate buffer (pH 9.0) to a density of about 1.0×10^8 bacteria per ml. 10 μl of a FITC solution (1% in DMSO) were added and incubated with the bacteria for 45 min. Fluorescent labelling was terminated by pelleting the bacteria (3.150×g, 5 min). Bacteria were washed twice in PBS to remove excess FITC and were gently resuspended for further use.

[2] = test system: H. pylori outer membrane proteins (OMP); experiment: Dot blot glycoconjugate assay, adhesins in general; format: binding; details: pre-treatment of H. pylori
OMP BabA = experiment: Dot blot glycoconjugate assay, BabA ligands (Lewis b, H type I); format: binding; details: pre-treatment of H. pylori
[3] = test system: FITC-labelled H. pylori on human gastric mucosa; experiment: In situ adhesion assay on histological sections of human gastric mucosa; format: cell-based; details: 300 μM
Procedure: In situ experiments with histological sections of human gastric mucosa and FITC-labelled H. pylori were performed according to Lengsfeld et al, 2004, J. Agricul. Food Chem: 52, 1495-1503, and evaluated by fluorescent microscopy. The adhesion of FITC-labelled H. pylori to the epithelium was assessed by fluorescent microscopy and imaging. The quantity of adhering bacteria to the epithelial surface was evaluated under double blinded conditions. Maximal adhesion was expressed as total 100% adhesion. The fluorescence area intensity was calculated by ImageJ® software (Olympus, Germany), standardizing the fluorescent area of the negative control as 100%.

[4] = 75 μM, untreated control = 100%
[5] = 150 μM, untreated control = 100%

Compound	rel. adhesion in [%] (±SEM; n = 3) [1, 4]	rel. adhesion in [%] (±SEM; n = 3) [1, 5]	other results
CC(=O)N[C@H]1[C@H]([C@H](O)[C@H](O)CO)O[C@@](O[C@H]2[C@@H](O)[C@@H](CO)O[C@@H](O[C@H]3[C@H](O)[C@@H](O)C(O)O[C@@H]3CO)[C@@H]2O)(C(=O)O)C[C@@H]1O (stereo partly shown) [positive control, 3′sialyllactose, reference compound]	–	–	rel. adhesion in [%] (±SEM; n = 3) ([1]; positive control 3′sialyllactose 15 mM): 70 ± 5%
AFNVNR [S3B]	97 ± 4%	104 ± 1%	–
Asp-Ala-Phe [S3H]	104 ± 6%	105 ± 1%	antiadhesive activity against H. pylori (in words) [1]: inactive
Asp-Phe-Leu-Glu-Asp (DFLED) [S3A]	102 ± 3%	108 ± 6%	–
DAFNVNR [S3D]	89 ± 4%	89 ± 3%	reduction of adhesion [1]: about 10%
DFLEDAF [S3F]	85 ± 3%	90 ± 5%	reduction of adhesion [1]: about 10%
DFLEDAFNV [S3E]	91 ± 4%	91 ± 4%	reduction of adhesion [1]: about 10%
DFLEDAFNVNR [S3]	81% and 81 ± 3%	83% and 83 ± 6%	influence on other adhesins (other than BabA / Lewis b-HSA) [2]: not significantly influenced; bacterial interaction with Lewis b-HSA conjugate (OMP BabA): inhibition; antiadhesive activity against H. pylori (in words) [1]: inhibit adhesion; inhibition of adhesion in situ [3]: about 40%
ELAFPGSAQEVDR [S5]	94 ± 2%	85 ± 2%	influence on other adhesins (other than BabA / Lewis b-HSA) [2]: not significantly influenced; bacterial interaction with Lewis b-HSA conjugate (OMP BabA): inhibition; antiadhesive activity against H. pylori (in words) [1]: inhibit adhesion; inhibition of adhesion ([1]; 75 μmol): 6%; inhibition of adhesion ([1]; 150 μmol): 17%
GDFELVGQR [S6]	94 ± 3%	97 ± 2%	–
LDALEPDNRIESEGGLIETWNPNNK [S1]	95 ± 10%	104 ± 7%	–
LEDAFNV [S3G]	93 ± 2%	94 ± 3%	reduction of adhesion [1]: about 10%
LEDAFNVNR [S3C]	95 ± 5%	100 ± 4%	–
LNIGPSSSPDIYNPEAGR [S2]	93 ± 8%	94 ± 6%	–
WEREEDEEQVDEEWR [S4]	98 ± 2%	107 ± 2%	–
